For 27 compounds, IC50 results are on record in patent US20150225369A1, “DDR2 INHIBITORS FOR THE TREATMENT OF OSTEOARTHRITIS” (Merck Patent GmbH, priority 2012, published 2015).

Assay [1] deals with T1, His-tagged human recombinant DDR-2 kinase domain (His-TEV-DDR2 467-855 aa) (Homo sapiens, UniProt Q16832).
T1 construct: His-TEV-DDR2 467-855 aa
T1 sequence (Q16832 467-855): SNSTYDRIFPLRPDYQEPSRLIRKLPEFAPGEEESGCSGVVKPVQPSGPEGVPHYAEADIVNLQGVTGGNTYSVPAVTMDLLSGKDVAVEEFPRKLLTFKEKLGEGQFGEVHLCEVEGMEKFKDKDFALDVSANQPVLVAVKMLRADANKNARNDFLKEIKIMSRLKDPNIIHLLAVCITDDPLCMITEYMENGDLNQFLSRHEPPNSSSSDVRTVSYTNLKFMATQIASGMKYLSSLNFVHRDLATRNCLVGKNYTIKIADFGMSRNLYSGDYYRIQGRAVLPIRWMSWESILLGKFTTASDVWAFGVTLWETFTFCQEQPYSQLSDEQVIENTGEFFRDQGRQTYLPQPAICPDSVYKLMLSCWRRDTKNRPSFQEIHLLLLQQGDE
The assay can be described thus: Autophosphorylation assay for biochemical activity testing of DDR2 (HTRF). The method in brief:
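Phospho-tyrosine was detected by HTRF between XL665 anti-6His and cryptate anti-phosphotyrosine PT66 antibodies, using the emission ratio. Inhibition was referenced to the inhibitor-free reaction.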
In general terms: TR-FRET usually uses a lanthanide donor and a delayed reading to cut background.

Assay [2] has as its target T2, HEK293 transfected with human DDR2 (Homo sapiens, UniProt Q16832).
T2 construct: expressed in transfected cells; host or cells: HEK293 (PLT460F_(DDR2)-P7-1)
T2 sequence (Q16832 22-855): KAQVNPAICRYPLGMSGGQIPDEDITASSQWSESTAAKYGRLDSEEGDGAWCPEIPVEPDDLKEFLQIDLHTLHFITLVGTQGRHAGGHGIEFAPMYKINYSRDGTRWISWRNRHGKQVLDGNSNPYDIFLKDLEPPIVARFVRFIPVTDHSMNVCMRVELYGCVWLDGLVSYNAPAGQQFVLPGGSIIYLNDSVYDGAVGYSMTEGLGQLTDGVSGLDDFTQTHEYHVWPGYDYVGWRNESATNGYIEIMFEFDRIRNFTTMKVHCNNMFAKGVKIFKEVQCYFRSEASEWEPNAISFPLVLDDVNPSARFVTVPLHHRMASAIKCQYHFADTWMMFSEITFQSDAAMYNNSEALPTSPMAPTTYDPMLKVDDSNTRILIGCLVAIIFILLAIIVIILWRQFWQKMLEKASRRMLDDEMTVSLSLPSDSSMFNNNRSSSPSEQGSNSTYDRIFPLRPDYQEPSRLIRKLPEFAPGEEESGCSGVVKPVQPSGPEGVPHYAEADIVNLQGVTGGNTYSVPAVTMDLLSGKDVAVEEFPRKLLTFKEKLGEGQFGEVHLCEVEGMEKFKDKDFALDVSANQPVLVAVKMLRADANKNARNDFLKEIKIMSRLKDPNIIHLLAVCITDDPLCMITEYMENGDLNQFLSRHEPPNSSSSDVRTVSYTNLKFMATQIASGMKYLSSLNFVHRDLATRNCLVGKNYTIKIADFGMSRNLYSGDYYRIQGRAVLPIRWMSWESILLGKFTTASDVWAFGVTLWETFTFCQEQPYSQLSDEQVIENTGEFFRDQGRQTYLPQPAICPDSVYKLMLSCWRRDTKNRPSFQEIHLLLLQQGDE
The assay can be described thus: Phospho-DDR2 cellular assay (collagen II induced DDR2 phosphorylation, ELISA). In kind it is cell-based. As to conditions: read-out: IC50 [p-DDR2]. Summed up: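 Cells seeded 48 h in 10% FBS, serum-starved 8 h, then given compound (5% DMSO) with 50 μg/ml chicken collagen II for 16 h at 37 °C. Lysates captured on anti-DDR2 antibody plates; phospho-DDR2 detected with HRP anti-phosphotyrosine antibody by chemiluminescence.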
(In general: In an ELISA, binding on a coated surface is turned into a signal by an enzyme label.)

Where [3] appears, read: 4 nM DDR2 kinase domain, 150 μM ATP, 150 min at 22° C.
Setting [4] is: HEK293 transfected with human DDR2, 50 μg/ml chicken collagen II, 16 h.
Setting [5] is: biochemical DDR2 autophosphorylation.

By IC50 is commonly meant the point on the concentration scale where inhibition reaches its midpoint.

Read-outs that look alike come from different tables or passages of the source.

In the case of `Cn1cc(C(F)(F)F)cc(NC(=O)NCc2ccc(Oc3ccnc4ccc(C(F)(F)F)cc34)cc2)c1=O` [compound 2], the IC50 in assay [1] (setting [3]) was 400 nM; in assay [2] (setting [4]), 5600 nM.

Regarding `COc1ccc(C(F)(F)F)cc1NC(=O)Nc1ccc(Cc2nc3cc[nH]c(=O)c3[nH]2)cc1` [compound 3], the IC50 in assay [1] (setting [3]) came out at 62 nM; in assay [2] (setting [4]), 110 nM.

In the case of `Cn1cc(C(F)(F)F)cc(NC(=O)NCc2ccc(Oc3ccnc4[nH]ccc34)cc2)c1=O` [compound 3], the IC50 in assay [1] (setting [3]) worked out at 66 nM; in assay [2] (setting [4]), 20 nM.

With `O=C(Nc1ccc(Cc2nc3cc[nH]c(=O)c3[nH]2)cc1)Nc1cccc(C(F)(F)F)c1` [compound 4], the IC50 in assay [1] (setting [3]) is 25 nM; in assay [2] (setting [4]), 320 nM.

For the compound `CNC(=O)c1cc(Oc2ccc(COC(=O)Nc3ccc(Cl)c(C(F)(F)F)c3)cc2)ccn1` [compound 6], the IC50 in assay [1] (setting [3]) came out at 420 nM; in assay [2] (setting [4]), 270 nM.

Take `CNC(=O)c1cc(Oc2ccc(CNC(=O)Nc3cc(Cl)ccc3OC)cc2)ccn1` [compound 19]: the IC50 in assay [1] (setting [5]) turned out to be 30 nM; in assay [2] (cellular phospho-DDR2) it was 14 nM.

For the compound `CNC(=O)c1cc(Oc2ccc(CNC(=O)Nc3cc(C)cnc3OC)cc2C)ccn1` [compound 20], the IC50 in assay [1] (setting [3]) was determined as 110 nM; in assay [2] (setting [4]) it was 41 nM.

Regarding `CNC(=O)c1cc(Oc2ccc(CNC(=O)Nc3cc(C(F)(F)F)cnc3Cl)cc2)ccn1` [compound 24], the IC50 in assay [1] (setting [3]) amounted to 130 nM; in assay [2] (setting [4]), 58 nM.

In the case of `CNC(=O)c1cc(Oc2ccc(CNC(=O)Nc3cc(C)cnc3Cl)cc2C)ccn1` [compound 25], the values for the IC50 in assay [1] (setting [3]) and in assay [2] (setting [4]) were 410 nM and 87 nM, respectively.

`COc1ncc(Cl)cc1NC(=O)NCc1ccc(Oc2ccnc(C)c2)cc1` [compound 27]: the figures for the IC50 in assay [1] (setting [3]) and in assay [2] (setting [4]) were 190 nM and 42 nM, respectively.

As to `Cc1cc(Oc2ccc(CNC(=O)Nc3cc(C(F)(F)F)cnc3Cl)cc2)ccn1` [compound 29], the IC50 turned out to be 350 nM in assay [1] (setting [3]) and 94 nM in assay [2] (setting [4]).

Consider `CNC(=O)c1cc(Oc2ccc(CNC(=O)Nc3cc(Cl)c(C)cc3OC)cc2)ccn1` [compound 66, 4-{4-[3-(5-Chloro-2-methoxy-4-methyl-phenyl)-ureidomethyl]-phenoxy}-pyridine-2-carboxylic acid methylamide], for which the IC50 in assay [1] (setting [5]) came to 55 nM; in assay [2] (cellular phospho-DDR2) it was 9 nM.

As for `CNC(=O)c1cc(Oc2ccc(C(C)NC(=O)Nc3cc(Cl)ccc3OC)cc2)ccn1` (stereo not drawn) [compound 72, 4-(4-{1-[3-(5-Chloro-2-methoxy-phenyl)-ureido]-ethyl}-phenoxy)-pyridine-2-carboxylic acid methylamide], the IC50 in assay [1] (setting [5]) is 340 nM; in assay [2] (cellular phospho-DDR2) it was 74 nM.

On to `CNC(=O)c1cc(Oc2ccc(CNC(=O)Nc3cc(C)c(Cl)cc3OC)cc2)ccn1` [compound 78, 4-{4-[3-(4-Chloro-2-methoxy-5-methyl-phenyl)-ureidomethyl]-phenoxy}-pyridine-2-carboxylic acid methylamide], for which the IC50 in assay [1] (setting [5]) was 100 nM; in assay [2] (cellular phospho-DDR2) it was 24 nM.

`CNC(=O)c1cc(Oc2ccc(CNC(=O)Nc3cc(OC)c(Cl)cc3OC)cc2)ccn1` [compound 83, 4-{4-[3-(4-Chloro-2,5-dimethoxy-phenyl)-ureidomethyl]-phenoxy}-pyridine-2-carboxylic acid methylamide]: the IC50 came to 760 nM in assay [1] (setting [5]) and 140 nM in assay [2] (cellular phospho-DDR2).

Take `CNC(=O)c1cc(Oc2ccc(CNC(=O)Nc3c(Cl)cncc3Cl)cc2)ccn1` [compound 84, 4-{4-[3-(3,5-Dichloro-pyridin-4-yl)-ureidomethyl]-phenoxy}-pyridine-2-carboxylic acid methylamide]: the figures for the IC50 in assay [1] (setting [5]) and in assay [2] (cellular phospho-DDR2) were 810 nM and 745 nM, respectively.

Take `CNC(=O)c1cc(Oc2ccc(CNC(=O)Nc3ccnc(Cl)c3)cc2)ccn1` [compound 89, 4-{4-[3-(2-Chloro-pyridin-4-yl)-ureidomethyl]-phenoxy}-pyridine-2-carboxylic acid methylamide]: the IC50 in assay [1] (setting [5]) was determined as 1000 nM; in assay [2] (cellular phospho-DDR2), 1450 nM.

Take `CNC(=O)c1cc(Oc2ccc(CNC(=O)Nc3cc(Cl)ccc3OC)cc2C)ccn1` [compound 100, 4-{4-[3-(5-Chloro-2-methoxy-phenyl)-ureidomethyl]-2-methyl-phenoxy}-pyridine-2-carboxylic acid methylamide]: the IC50 in assay [1] (setting [5]) was determined as 120 nM; in assay [2] (cellular phospho-DDR2), 25 nM.

`CNC(=O)c1cc(Oc2ccc(CNC(=O)Nc3c(OC)cc(Cl)c(C)c3Cl)cc2)ccn1` [compound 103, 4-{4-[3-(2,4-Dichloro-6-methoxy-3-methyl-phenyl)-ureidomethyl]-phenoxy}-pyridine-2-carboxylic acid methylamide]: the half-maximal inhibitory concentration (IC50) in assay [1] (setting [5]) is 14000 nM; in assay [2] (cellular phospho-DDR2), 4600 nM.

For `CNC(=O)c1cc(Oc2ccc(CNC(=O)Nc3cc(C)c(Cl)cc3OCCN3CCOCC3)cc2)ccn1` [compound 110, 4-(4-{3-[4-Chloro-5-methyl-2-(2-morpholin-4-yl-ethoxy)-phenyl]-ureidomethyl}-phenoxy)-pyridine-2-carboxylic acid methylamide], the 50% inhibitory concentration (IC50) in assay [1] (setting [5]) came to 290 nM; in assay [2] (cellular phospho-DDR2) it was 130 nM.

`CNCCOc1ccc(C(F)(F)F)cc1NC(=O)NCc1ccc(Oc2ccnc(C(=O)NC)c2)cc1` [compound 111, 4-(4-{3-[2-(2-Methylamino-ethoxy)-5-trifluoromethyl-phenyl]-ureidomethyl}-phenoxy)-pyridine-2-carboxylic acid methylamide]: the IC50 in assay [1] (setting [5]) was 64 nM; in assay [2] (cellular phospho-DDR2), 24 nM.

In the case of `CNC(=O)c1cc(Oc2ccc(CNC(=O)Nc3cc(C(F)(F)F)ccc3OCCN3CCNCC3)cc2)ccn1` [compound 112, 4-(4-{3-[2-(2-Piperazin-1-yl-ethoxy)-5-trifluoromethyl-phenyl]-ureidomethyl}-phenoxy)-pyridine-2-carboxylic acid methylamide], the results for the IC50 in assay [1] (setting [5]) and in assay [2] (cellular phospho-DDR2) were 130 nM and 47 nM, respectively.

Turning to `CNC(=O)c1cc(Oc2ccc(CNC(=O)Nc3cc(C)c(Cl)cc3OCCN(C)C)cc2)ccn1` [compound 118, 4-(4-{3-[4-Chloro-2-(2-dimethylamino-ethoxy)-5-methyl-phenyl]-ureidomethyl}-phenoxy)-pyridine-2-carboxylic acid methylamide], the figures for the 50% inhibitory concentration (IC50) in assay [1] (setting [5]) and in assay [2] (cellular phospho-DDR2) were 200 nM and 55 nM, respectively.

On to `CNC(=O)c1cc(Oc2ccc(CNC(=O)Nc3cc(C)c(Cl)cc3OC3CCNCC3)cc2)ccn1` [compound 124, 4-(4-{3-[4-Chloro-5-methyl-2-(piperidin-4-yloxy)-phenyl]-ureidomethyl}-phenoxy)-pyridine-2-carboxylic acid methylamide], for which the IC50 worked out at 66 nM in assay [1] (setting [5]) and 40 nM in assay [2] (cellular phospho-DDR2).

As to `CNCCOc1cc(Cl)c(C)cc1NC(=O)NCc1ccc(Oc2ccnc(C(=O)NC)c2)cc1` [compound 125, 4-(4-{3-[4-Chloro-5-methyl-2-(2-methylamino-ethoxy)-phenyl]-ureidomethyl}-phenoxy)-pyridine-2-carboxylic acid methylamide], the IC50 in assay [1] (setting [5]) amounted to 187 nM; in assay [2] (cellular phospho-DDR2), 52 nM.

With `CNCCOc1cc(Cl)c(C(F)(F)F)cc1NC(=O)NCc1ccc(Oc2ccnc(C(=O)NC)c2)cc1` [compound 127, 4-(4-{3-[4-Chloro-2-(2-methylamino-ethoxy)-5-trifluoromethyl-phenyl]-ureidomethyl}-phenoxy)-pyridine-2-carboxylic acid methylamide], the values for the IC50 in assay [1] (setting [5]) and in assay [2] (cellular phospho-DDR2) were 47 nM and 34 nM, respectively.

For the compound `CNC(=O)c1cc(Oc2ccc(CNC(=O)Nc3cc(C(F)(F)F)c(Cl)cc3OCCN3CCNCC3)cc2)ccn1` [compound 128, 4-(4-{3-[4-Chloro-2-(2-piperazin-1-yl-ethoxy)-5-trifluoromethyl-phenyl]-ureidomethyl}-phenoxy)-pyridine-2-carboxylic acid methylamide], the IC50 in assay [1] (setting [5]) was determined as 91 nM; in assay [2] (cellular phospho-DDR2) it was 63 nM.
